Reference: publication PMC5541372 (Biochemistry, 2017)

Target: T1, NOV2 (Novosphingobium aromaticivorans, UniProt Q2G4H8)
T1 sequence (Q2G4H8 1-497): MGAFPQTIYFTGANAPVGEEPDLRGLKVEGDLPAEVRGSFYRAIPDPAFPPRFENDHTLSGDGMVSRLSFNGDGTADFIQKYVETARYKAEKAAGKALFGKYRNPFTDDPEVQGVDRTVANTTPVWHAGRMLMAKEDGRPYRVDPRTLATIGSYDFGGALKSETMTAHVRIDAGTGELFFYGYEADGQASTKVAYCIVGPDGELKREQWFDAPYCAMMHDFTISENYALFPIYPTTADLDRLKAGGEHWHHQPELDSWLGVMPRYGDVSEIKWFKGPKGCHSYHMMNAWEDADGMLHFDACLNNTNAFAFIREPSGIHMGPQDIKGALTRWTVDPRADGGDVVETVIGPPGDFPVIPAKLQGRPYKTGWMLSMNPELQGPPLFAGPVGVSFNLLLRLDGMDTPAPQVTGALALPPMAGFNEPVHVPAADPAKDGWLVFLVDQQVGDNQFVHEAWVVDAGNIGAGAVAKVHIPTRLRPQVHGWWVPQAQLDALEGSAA
Experiment: EPR of Fe-NO adduct and […] Mössbauer
Type: binding
Details: anaerobic, NO present for EPR

Compound | EPR of Fe-NO adduct and 57Fe Mössbauer (4-10 equiv substrate, pH 8.5 or 7.5) | EPR of Fe-NO adduct and 57Fe Mössbauer (4 equiv substrate, pH 8.5)
Oc1cc(O)cc(/C=C/c2ccc(O)c(O)c2)c1 [piceatannol] | nearly all active sites had substrate bound | 
Oc1ccc(/C=C/c2cc(O)cc(O)c2)cc1 [resveratrol] |  | The resveratrol ES+NO of NOV2 showed EPR spectra (Figure 5D) similar to those with piceatannol
